Entries after “also recorded” stand apart in the source; their conditions may differ.
Tests used:
[1] = system: coronary arteries of ovariectomized rhesus monkeys; assay: Drug-induced (serotonin + U46619) coronary vasospasm in ovariectomized rhesus monkeys, coronary angiography; type: in vivo, Macaca mulatta
Description: Six adult ovariectomized (OVX) female rhesus monkeys (Macaca mulatta) were employed in the studies described below. None of the monkeys had been exposed to high cholesterol diets and all were later verified to lack evidence of cardiovascular disease. […] The monkeys were entered into the study no less than 3 months after ovariectomy.
Angiography after overnight fasting began with preanesthesia with ketamine (10 mg/kg body weight intramuscular), intubation with an endotracheal tube and a light surgical plane of anesthesia with isoflurane (induced at 1.5% to 3% maintained at 0.75% to 1.25%), vaporized with 33% nitrous oxide and 67% oxygen, or with 100% oxygen. Bilateral femoral intraarterial 3F catheters allowed for coronary catheterization and continuous recording of systemic arterial blood pressure and heart rate, which were maintained close to the initial anesthetic value for each monkey. […] A heating pad assisted in maintenance of a body temperature decrease ≦2° C. of preanesthesia body temperature (monitored by rectal thermometer). An electrocardiogram (ECG) recorded on a Gould eight-channel recorder, cutaneous arterial oxygen saturation, respiratory rate and end-tidal CO2 were also monitored.
Entire experiments were recorded on videotape (with episodic fluoroscopic imaging and continuous voice annotation) to permit computerized quantitative coronary angiography. […]
Placement of the 3F catheter was adjusted to provide sufficient filling with radio-opaque contrast medium, limited reflux and isolation of a branch of the coronary arterial tree. […] Fluoroscopic images were recorded on film using an OEC model 9800 digital x-ray system with fluoroscopic C-arm, digitally recorded, and evaluated in subsequent analysis. All procedures including a brief 0.2 ml injection of Hexabrix for optimal quantitative angiography were recorded on videotape for subsequent computer analysis. […]
After 4 weeks of daily treatment with 0.2 mg/kg of the estriol topical cream, the monkeys were studied by coronary catheterization, and reactivity was assessed by injection of serotonin (100 μM) and U46619 (1 μM). […]

[2] = Estriol absorbed, urine level after topical estriol cream; type: in vivo, Macaca mulatta; settings: OVX rhesus monkeys, daily 0.3% estriol topical cream, urine collected just prior to catheterization, n = 5
Description: Repeat slow intracoronary infusions of 1 ml over 30 seconds of the combination of serotonin and U46619 in this 100:1 molar ratio were used, adjusted for body weight (0.2 mg/kg) to produce coronary blood levels of 6.7 μM serotonin and 67 nM U46619. The levels of these two components were based on calculated coronary flow dilution.

[3] = system: VMC isolated from OVX monkeys; assay: Ca2+ response to S+U of cultured VMC isolated from estriol-treated OVX monkeys (Fluo3 imaging); type: cell-based, rhesus monkey; settings: VMC from OVX monkeys treated 4 weeks with daily transdermal estriol, cultured 2 weeks
Text: Hearts or major blood vessels are removed at necropsy from rhesus monkeys sacrificed for other purposes and are immediately immersed in cold ionic solution for mammals (ISM2). ISM2 contains, in mM, 100 NaCl, 16 NaHCO3, 0.5 NaH2PO4, 4.7 KCl, 1.8 CaCl2, 0.4 MgCl2, 0.4 HgSO4, 50 HEPES, and 5.5 dextrose, at pH 7-3 to 7.4. Single cells are enzymatically dissociated in a multi-step process for hearts and coronary arteries are dissected from the anterior and posterior walls of the ventricles and the atrioventricular sulcus. The coronary artery segments are cleaned and then cut into small pieces and rinsed in culture solution for mammals—5th generation (CV5M) for 10 min, followed by potassium glutamate (KG) solution for 10 min, both at room temperature. CV5M contains 4.0 mM L-glutamine, 100 μg/mL ciprofloxacin, 50 mM HEPES (pH 7.3), and 16 mM NaHCO3 dissolved in 90% MEM-Earles's salts and 10% horse serum. KG solution contains, in mM, 140 K-glutamate, 50 HEPES (pH 7.3), 16 NaH2PO4, and 16.5 dextrose. […]
Enzyme exposure is minimized by cold and added serum. […] The remaining cells in suspension are counted and concentrated to ˜100,000 living cells/ml by centrifugation, and re-suspended in CV5M at 37° C. […]

[4] = molecular target: T1, estrogen receptor beta (ERβ/D22 interaction) (Homo sapiens, UniProt Q92731); assay: ERβ coactivator fluorescence polarization assay; type: biochemical; settings: 0.038 nM to 1240 nM, triplicate, FIG. 3
T1 construct: purchased PanVera/Invitrogen (Invitrogen Corp., Carlsbad, Calif.)
T1 sequence (Q92731 whole entry): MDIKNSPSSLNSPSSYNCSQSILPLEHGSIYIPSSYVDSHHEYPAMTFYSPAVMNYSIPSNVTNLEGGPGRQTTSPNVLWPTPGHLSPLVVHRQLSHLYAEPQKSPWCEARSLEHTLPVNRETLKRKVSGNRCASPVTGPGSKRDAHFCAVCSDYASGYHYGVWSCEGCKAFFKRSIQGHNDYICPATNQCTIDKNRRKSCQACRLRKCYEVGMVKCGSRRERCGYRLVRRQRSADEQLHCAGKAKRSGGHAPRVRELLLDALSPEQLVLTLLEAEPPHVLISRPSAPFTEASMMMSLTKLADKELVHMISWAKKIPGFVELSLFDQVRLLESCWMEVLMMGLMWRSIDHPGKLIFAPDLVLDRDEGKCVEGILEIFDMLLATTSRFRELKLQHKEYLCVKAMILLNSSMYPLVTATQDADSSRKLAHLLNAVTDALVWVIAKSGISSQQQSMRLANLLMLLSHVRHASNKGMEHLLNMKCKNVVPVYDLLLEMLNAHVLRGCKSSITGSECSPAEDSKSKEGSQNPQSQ
Description: An estrogen receptor beta coactivator fluorescence polarization assay was performed by PanVera/Invitrogen discovery screening applying the company's ERβ Coactivator Assay Kit (Invitrogen Corp., Carlsbad, Calif.) using fluorescence polarization with known estrogen receptor ligands (estradiol, ICI182,780, tamoxifen, and OH-tamoxifen) and test compounds (estriol, 3βAdiol, and epiestriol).
Data on the X-axis of the graph of FIG. 3 are represented as log of concentrations from 0.038 nM to 1240 nM tested for each of the perspective ligands. The ligand concentration that produces a half-maximal increase or decrease in polarization equals the ligand EC50 for the ERβ/D22 interaction. The ordinate Y-axis, mP, indicates fluorescence polarization units. Increase in polarization indicates agonist activity. Conversely, a decrease in polarization indicates antagonist activity. The date represent mean +/− standard deviation of the polarization values from the assay performed in triplicate.

rhesus coronary VMC = assay: Ca2+ responses to S+U in rhesus coronary VMC after in vitro treatment (Fluo3 imaging); type: cell-based, rhesus monkey; settings: for Ca2+ signal in response to 15 sec S+U (protection): FIG. 4; for Ca2+ response to S+U (protected state vs control): FIG. 6, p<0.05
Text: Hearts or major blood vessels are removed at necropsy from rhesus monkeys sacrificed for other purposes and are immediately immersed in cold ionic solution for mammals (ISM2). ISM2 contains, in mM, 100 NaCl, 16 NaHCO3, 0.5 NaH2PO4, 4.7 KCl, 1.8 CaCl2, 0.4 MgCl2, 0.4 HgSO4, 50 HEPES, and 5.5 dextrose, at pH 7-3 to 7.4. Single cells are enzymatically dissociated in a multi-step process for hearts and coronary arteries are dissected from the anterior and posterior walls of the ventricles and the atrioventricular sulcus. The coronary artery segments are cleaned and then cut into small pieces and rinsed in culture solution for mammals—5th generation (CV5M) for 10 min, followed by potassium glutamate (KG) solution for 10 min, both at room temperature. CV5M contains 4.0 mM L-glutamine, 100 μg/mL ciprofloxacin, 50 mM HEPES (pH 7.3), and 16 mM NaHCO3 dissolved in 90% MEM-Earles's salts and 10% horse serum. KG solution contains, in mM, 140 K-glutamate, 50 HEPES (pH 7.3), 16 NaH2PO4, and 16.5 dextrose.
The coronary artery tissue is then incubated at 37° C. for 60 min in an enzyme solution (430 U/ml collagenase and 2 U/ml elastase with 2 mg/ml bovine serum albumin and 100 μM Ca^2+ in 10 ml of 37° C. KG) with slow stirring. The supernatant is transferred to 25 ml of 4° C. KG holding solution with 10% horse serum (KG-H), and 10 ml of enzyme solution is added to the remaining un-dispersed tissue fragments. This enzymatic treatment is repeated three times.
Enzyme exposure is minimized by cold and added serum. Holding solutions (with 10% serum) containing the dispersed cells are centrifuged at 200 G and 4° C. for 5 min. After the supernatant is removed, the cells are re-suspended in 5 ml of 37° C. CV5M and incubated for 1 hr at 37° C. to permit preferential attachment of fibroblasts. The remaining cells in suspension are counted and concentrated to ˜100,000 living cells/ml by centrifugation, and re-suspended in CV5M at 37° C. VMC are then seeded on clean glass coverslips in culture plates, and maintained undisturbed in 95% air-5% CO2 and 95% humidity at 37° C. for attachment for 12 hr, and then flooded with CV5M. Cells from the suspension are also similarly seeded in growth optimized culture flasks and flooded with CV5M after 12 hr.
Media changes to a 1% medium (CV5MM, identical to CV5M except the concentration of horse serum is 1 %) are used to reduce growth factors after 2-4 days. Strict pH control (7.3-7.4) at each temperature (4° and 37° C.) is maintained by recognition and allowance for the temperature coefficient of the HEPES buffer. Subculture of cells is performed by brief trypsinization, followed by neutralization of trypsin, wash in media, reconstitution of cell suspension in medium with 1% serum, and plating onto culture plates and coverslips. For Ca^2+ imaging experiments, VMC from primary culture are used.
Imaging of intracellular Ca^2+ changes is performed using the fluorescent indicator, Fluo3. Glass coverslips with attached VMC are placed into 300 μL LF 922 laminar flow chambers on the stage of a Zeiss Axiovert 200M microscope, and suffused with ISM2 continuously at 1 mL/min. Live cell fluorescent data acquisition is performed with a photon counting Hamamatsu VIM camera in conjunction with image processing software. Briefly, VMC are loaded with 3 μM Fluo3 for 10 min (stopped flow), then washed (continuously suffused) with ISM2 for 5 min. VMC are exposed for stimulation to a combination of serotonin and U46619, a stabile thromboxane A2 mimetic. This combination, containing serotonin at a concentration of 10 μM and U46619 at a concentration of 100 nM, is referred to as S+U. The VMC are exposed to the S+U combination for 15 sec (stopped flow), and then continuously suffused with ISM2.

C[C@]12CC[C@@H]3c4ccc(O)cc4CC[C@H]3[C@@H]1C[C@@H](O)[C@@H]2O [estriol]
Vasospasm criteria met (incidence) ([1]; OVX rhesus monkeys, 4 weeks daily 0.3% estriol topical cream, intracoronary serotonin + U46619, criteria <33% of control diameter for >5 minutes): 0/6
Protection against coronary vasospasm ([1]; OVX rhesus monkeys, 4 weeks daily estriol topical cream, serotonin + U46619 challenge): protected against vasospasm; also recorded: protection against coronary vasospasm by administration of estriol was categorical
Minimum diameter of coronary arteries following S+U provocative stimulus ([1]; estriol cream treated OVX monkeys vs untreated OVX, FIG. 1, p<0.05): indicative of protection against provoked vasospasm
E3 absorbed, urine (total) [2]: ***2412 +/− 316 (n = 5) ng/ml
Ca2+ response state after S+U challenge ([3]; 15 sec S+U stimulus, FIG. 2): protected state
Duration of Ca2+ spike after S+U challenge ([3]; declining after 2 min to nearly baseline): 10 to 30 s
Estrogen beta receptor agonist activity (increase in polarization) [4]: estrogen beta agonists
Ca2+ signal in response to 15 sec S+U (protection) (rhesus coronary VMC; 72 hours treatment at 1 nM): protective
Protection relative to the other agonists (rhesus coronary VMC; 72 hours, 1 nM estriol vs 300 pM 3βAdiol and 1 nM epiestriol, FIG. 4, p<0.05): weaker

C[C@]12CC[C@@H]3c4ccc(O)cc4CC[C@H]3[C@@H]1C[C@H](O)[C@@H]2O [epiestriol]
Estrogen beta receptor agonist activity (increase in polarization) [4]: beta receptor activity similar to that of estriol and estradiol
Ca2+ signal in response to 15 sec S+U (protection) (rhesus coronary VMC; 72 hours treatment at 1 nM): protection with estriol was found to be weaker than the estrogen beta receptor selective agonists 3βAdiol and epiestriol

N#CC(Cc1ccc(O)cc1)c1ccc(O)cc1 (stereo not drawn) [DPN, diarylpropionitrile]
Ca2+ response to S+U (protected state vs control) (rhesus coronary VMC; 1 nM): produced a protected state

C[C@]12CC[C@H](O)C[C@@H]1CC[C@@H]1[C@@H]2CC[C@]2(C)[C@@H](O)CC[C@@H]12 [3βAdiol, 5α-androstan-3β,17β-diol]
Estrogen beta receptor agonist activity (increase in polarization) [4]: beta receptor activity similar to that of estriol and estradiol
Protection relative to genistein and DPN (rhesus coronary VMC; 300 pM 3βAdiol vs 10 nM genistein and 1 nM DPN, FIG. 6): superior
Ca2+ response to S+U (protected state vs control) (rhesus coronary VMC; 300 pM): produced a protected state
Ca2+ signal in response to 15 sec S+U (protection) (rhesus coronary VMC; 72 hours treatment at 300 pM): protection with estriol was found to be weaker than the estrogen beta receptor selective agonists 3βAdiol and epiestriol
Ca2+ response to S+U (rhesus coronary VMC; concentrations greater than 30 pM (range tested 30 pM to 3 nM), FIG. 5): a protected state was established

CC[C@@H]1Cc2cc(O)ccc2C2=C1c1ccc(O)cc1C[C@H]2CC [RRTHC, RR-tetrahydrochrysene]
Ca2+ signal in response to 15 sec S+U (exaggerated hyperreactive state) (rhesus coronary VMC; 1 to 6 hour treatment with RRTHC, FIG. 7B): not
Ca2+ signal in response to 15 sec S+U (rhesus coronary VMC; 72 hours in RRTHC in vitro, FIG. 7B, p<0.05): exaggerated hyperreactive state beyond control
Effect on protection by 72 hour 300 pM 3βAdiol (Ca2+ signal after S+U) (rhesus coronary VMC; RRTHC 30 μM, 3 hours prior to and during 3βAdiol, FIG. 7A, p<0.05): blocked

O=c1c(-c2ccc(O)cc2)coc2cc(O)cc(O)c12 [genistein]
Ca2+ response to S+U (protected state vs control) (rhesus coronary VMC; 10 nM): produced a protected state

From patent US7674783B2, “Estrogen beta receptor agonists to prevent or reduce the severity of cardiovascular disease” (Dimera Inc., priority 2002, dated 2010)
